Test results from US20060134693A1, “Olfactory cyclic nucleotide-gated channel cell-based assays to identify T1R and T2R taste modulators” (priority 2001, published 2006).
Peptide text beside a SMILES is read from it.

Key:
[1] = system: human olfactory CNG channel; experiment: FLIPR calcium assay, HEK-293 cells stably expressing the human olfactory CNG channel; format: cell-based; settings: calcium dye; versus parent cells; FIG. 11
Method: The HEK-293 cells that stably express the human olfactory CNG channel were seeded into FLIPR imaging plates 24 hours prior to the experiment, on plates pre-coated with matrigel. The cells were loaded with a fluorescent calcium dye for one hour, washed and transferred to a FLIPR automated fluorometric plate reader with on-board fluidics. […] Therefore, the cell-based assay is amenable to high throughput applications.

[2] = system: activity-enhanced human olfactory CNG channel; experiment: FLIPR calcium assay, HEK-293 cells stably expressing the activity-enhanced human olfactory CNG channel; format: cell-based; settings: calcium dye; versus parent cells and wild type CNG subunits; FIG. 11
Method: The HEK-293 cells that stably express the activity-enhanced human olfactory CNG channel were seeded into FLIPR imaging plates 24 hours prior to the experiment, on plates pre-coated with matrigel. The cells were loaded with a fluorescent calcium dye for one hour, washed and transferred to a FL]PR automated fluorometric plate reader with on-board fluidics. […] Therefore, the cell-based assay is amenable to high throughput applications, especially with respect to low affinity modulators.

[3] = system: HEK-293-oCNGC cells; experiment: Calcium influx in HEK-293-oCNGC cells on isoproterenol addition; format: cell-based, human; settings: increasing concentrations; FIG. 12
Method: FIG. 12 contains the results of an experiment showing that increasing concentrations of isoproterenol induce calcium influx in HEK 293-oCNGC cells. Delta F/F corresponds to the maximum fluorescence value obtained after stimulation minus the minimum fluorescence measured before stimulation and normalized to the minimum fluorescence measure before stimulation.
(§1) Modulation of oCNG activity by taste receptors is measured in a cell-based assay that detects changes in intracellular calcium (as described in earlier examples). In brief, human embryonic kidney cells stably expressing the OCNC1 and are β1b subunits of oCNGC are transiently or stably transfected with T1R or T2R receptor plasmids. Transfected cells are seeded into 384-well culture plates, and functional expression is allowed to proceed for about 24 to 48 hours. The cells are then incubated with a calcium specific fluorescent dye (Fluo-4 or Fura-2, available from Molecular Probes) that provides for fast, simple and reliable fluorimetric detection of changes in calcium concentration within the cell.
This accumulation of CAMP induces oCNGC activation, which in turn causes extracellular calcium to flow inside the cells, resulting in a net increase of intracellular calcium concentration and a parallel increase of the fluorescence signal in the cells (FIG. 12).

[4] = target: T1, human sweet receptor hT1R2/hT1R3 (Homo sapiens, UniProt Q7RTX0+Q8TE23); experiment: Isoproterenol-induced calcium influx in HEK-293-oCNGC cells expressing hT1R2/hT1R3; format: cell-based; settings: PTX 100 ng/ml for 4 hours; 200 nM isoproterenol; 5 mM Aspartame, 2 mM Cyclamate, 4 mM Saccharin, 0.1 mM Neotame; FIG. 15
T1 construct: host or cells: human embryonic kidney cells (earlier application U.S. Ser. No. 10/770,127)
T1 sequence (Q8TE23 20-839): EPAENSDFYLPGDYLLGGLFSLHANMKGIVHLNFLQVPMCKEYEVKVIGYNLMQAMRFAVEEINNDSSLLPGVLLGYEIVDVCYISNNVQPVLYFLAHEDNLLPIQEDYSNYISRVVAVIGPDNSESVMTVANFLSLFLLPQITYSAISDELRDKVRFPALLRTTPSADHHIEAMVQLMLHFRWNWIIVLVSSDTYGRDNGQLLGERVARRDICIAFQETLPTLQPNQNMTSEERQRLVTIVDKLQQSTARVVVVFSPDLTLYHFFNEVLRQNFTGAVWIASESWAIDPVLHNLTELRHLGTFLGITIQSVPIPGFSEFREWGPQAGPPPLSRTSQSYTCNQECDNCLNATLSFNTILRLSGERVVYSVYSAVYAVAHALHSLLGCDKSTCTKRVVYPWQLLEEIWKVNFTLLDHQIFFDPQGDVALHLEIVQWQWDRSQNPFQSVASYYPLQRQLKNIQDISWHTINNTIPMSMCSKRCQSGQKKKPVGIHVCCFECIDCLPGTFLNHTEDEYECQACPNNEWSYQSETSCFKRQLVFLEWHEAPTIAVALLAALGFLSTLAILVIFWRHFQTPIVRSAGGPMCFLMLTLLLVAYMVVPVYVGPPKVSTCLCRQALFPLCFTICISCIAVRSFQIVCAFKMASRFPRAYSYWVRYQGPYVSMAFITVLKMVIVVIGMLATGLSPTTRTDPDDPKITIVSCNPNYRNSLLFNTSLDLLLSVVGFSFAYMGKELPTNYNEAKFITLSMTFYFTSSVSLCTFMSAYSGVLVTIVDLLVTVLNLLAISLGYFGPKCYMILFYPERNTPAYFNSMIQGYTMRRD
T1 sequence (Q7RTX0 21-852): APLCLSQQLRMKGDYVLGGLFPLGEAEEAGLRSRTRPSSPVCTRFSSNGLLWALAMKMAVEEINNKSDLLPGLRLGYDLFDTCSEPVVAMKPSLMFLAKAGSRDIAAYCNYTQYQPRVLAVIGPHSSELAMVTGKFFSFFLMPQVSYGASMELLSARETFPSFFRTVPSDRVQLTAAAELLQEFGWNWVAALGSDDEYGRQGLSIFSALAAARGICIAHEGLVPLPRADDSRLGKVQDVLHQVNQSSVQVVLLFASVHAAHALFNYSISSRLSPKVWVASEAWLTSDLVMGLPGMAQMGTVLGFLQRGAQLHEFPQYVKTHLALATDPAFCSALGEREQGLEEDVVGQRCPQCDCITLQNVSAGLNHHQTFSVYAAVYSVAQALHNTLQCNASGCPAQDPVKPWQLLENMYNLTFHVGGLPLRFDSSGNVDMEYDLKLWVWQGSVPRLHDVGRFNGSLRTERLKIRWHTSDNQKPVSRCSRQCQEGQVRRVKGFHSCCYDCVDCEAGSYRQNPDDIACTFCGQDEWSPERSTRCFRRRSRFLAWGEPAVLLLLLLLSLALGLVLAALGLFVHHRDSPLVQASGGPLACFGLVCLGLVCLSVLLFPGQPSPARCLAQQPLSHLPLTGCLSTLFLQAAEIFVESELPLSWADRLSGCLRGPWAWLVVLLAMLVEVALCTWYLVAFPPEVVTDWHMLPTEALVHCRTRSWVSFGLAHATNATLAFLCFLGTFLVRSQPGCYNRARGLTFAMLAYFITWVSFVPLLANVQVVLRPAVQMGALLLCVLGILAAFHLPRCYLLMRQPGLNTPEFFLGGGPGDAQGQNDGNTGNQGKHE
Method: FIG. 13 contains the result of an experiment showing that increasing concentrations of sweeteners inhibit the isoproterenol-induced-calcium influx in HEK 293-oCNGC cells expressing the human sweet receptor hT1R2/hT1R3. Delta F/F values were normalized to the fluorescence obtained after stimulation with 200 nM isoproterenol. Each value corresponds to the mean ± SD of a triplicate determination.
Cells were left untreated (control) or treated with PTX for 4 hours at 100 ng/ml prior to the experiment. Cells were then stimulated with 200 nM isoproterenol in the presence or absence of the indicated sweeteners (5 mM Aspartame, 2 mM Cyclamate, 4 mM Saccharin and 0.1 mM Neotame).
as §1
An experiment was conducted to assess the effect of various sweeteners (known to activate the human T1R2/T1R3 sweet receptor) on isoproterenol-induced calcium influx in HEK-293—oCNGC cells that express the human T1R2/T1R3 sweet receptor. As shown by the results in FIG. 13, increasing concentrations of sweetener inhibits isoproterenol-induced calcium influx in these cells. (In the figure, Delta F/F values were normalized to the fluorescence obtained after stimulation with 200 nM isoproterenol and each value corresponds to the means ± SD of a triplicate determination). […]

[5] = system: untransfected HEK 293-oCNGC cells; experiment: Isoproterenol-induced calcium influx in untransfected HEK 293-oCNGC cells; format: cell-based, human; settings: cells not expressing hT1R2/hT1R3; increasing concentrations; 200 nM isoproterenol; FIG. 14
Method: Delta F/F valves were normalized to the fluorescence obtained after stimulation with 200 nM isoproterenol. Each value corresponds to the mean ± SD of a triplicate determination.
as §1
An experiment was conducted to confirm that the effects of the sweeteners on calcium influx requires the expression of the sweet receptor.
In FIG. 14, it is shown that increasing concentrations of the tested sweeteners had no inhibitory effect on isoproterenol-induced calcium influx in untransfected HEK 293—oCNGC cells. Again, Delta F/F values were normalized to the fluorescence obtained after stimulation with 200 nM isoproternol and each value component to the mean ± SD of a triplicate determination).

[6] = target: T2, human T1R2/T1R3 sweet taste GPCR (Homo sapiens, UniProt Q7RTX0+Q8TE23); experiment: CNG136 cell line (HEK293-derived, co-expressing human CNG channel and human T1R2/T1R3), FLIPR384 response; format: cell-based; settings: 5 mM Aspartame (saturating concentration, the normalization reference); average of 2
T2 construct: expressed in transfected cells; host or cells: CNG136, derived from HEK293
T2 sequence (Q8TE23 20-839): T1 sequence (Q8TE23 20-839)
T2 sequence (Q7RTX0 21-852): T1 sequence (Q7RTX0 21-852)
Method: (§2) Methods: […] This cell line was derived from HEK293 cells. CNG136 was tested with several sweet receptor agonists and modulators including, Compound 6542888, Compound 3069733, and Aspartame. Response to 10 uM of 6542888 and 3069733 and 5 mM Aspartame was measured using a FLIPR384 instrument (Molecular Devices) and is reported in Table I below. Data were normalized to the maximum activity obtained with a saturating concentration of Aspartame (5 mM). Compounds were also tested on control (“Parental CNG”) cells lacking the human sweet GPCR.

[7] = system: Parental CNG cells lacking the human sweet GPCR; experiment: Control Parental CNG cells lacking the human sweet GPCR, FLIPR384 response; format: cell-based; settings: 5 mM Aspartame, average of 2
Method: as §2

[8] = target: T3, mouse olfactory receptor, mOREG (Mus musculus, UniProt Q920P2); experiment: Calcium dye fluorescence microscopy, HEK-293 cells transfected with mOREG and human olfactory CNG channel subunits; format: cell-based; settings: CNG channel dependent and mOREG dependent, FIG. 9
T3 construct: expressed in transfected cells; host or cells: HEK-293, co-transfected with OCNC1[C458W/E581M], OCNC2 and β1b
T3 sequence (Q920P2 1-313): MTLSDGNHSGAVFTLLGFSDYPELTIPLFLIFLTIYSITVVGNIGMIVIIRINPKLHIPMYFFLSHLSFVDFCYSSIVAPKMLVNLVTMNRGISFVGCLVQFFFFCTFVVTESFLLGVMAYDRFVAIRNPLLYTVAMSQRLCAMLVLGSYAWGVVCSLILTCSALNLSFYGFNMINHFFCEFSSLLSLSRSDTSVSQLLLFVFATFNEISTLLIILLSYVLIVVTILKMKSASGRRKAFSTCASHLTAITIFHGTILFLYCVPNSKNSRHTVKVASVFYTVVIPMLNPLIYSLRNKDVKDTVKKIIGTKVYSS
Method: HEK-293 cells were transfected with OCNC1[C458W/E581FM], OCNC2, and β1band a mouse olfactory receptor, mOREG, that is activated by eugenol (Kajiya et al., 2001). Transfected cells were seeded onto multi-well plates. After 48 hours, cells were loaded with a calcium dye for one hour, then washed, and their response to eugenol stimulation was monitored by fluorescence microscopy.

CC(C)NCC(O)c1ccc(O)c(O)c1 (centres unmarked) [isoproterenol]
fluorescence response [1]: increased fluorescence | fluorescence response [2]: fluorescence similar to that observed with wild type CNG subunits | calcium influx [3]: in a dose-dependent manner

COC(=O)[C@H](Cc1ccccc1)NC(=O)[C@@H](N)CC(=O)O [Aspartame] (H-Asp-Phe-OMe)
inhibition of isoproterenol-induced calcium influx after PTx pretreatment [4]: prevented the inhibition | effect on isoproterenol-induced calcium influx [5]: unaffected | % Max Activity CNG136 [6]: 100% | % Activity CNG (Parental Cells) [7]: 0%

C=CCc1ccc(O)c(OC)c1 [Eugenol, eugenol]
fluorescence response [8]: elicited fluorescence increases
